Measurements taken from patent US10261017B2, “Methods for detecting and categorizing skin sensitizers” (University of Mississippi, priority 2014, dated 2019).
Values joined by “and” are separate entries in the source; they are usually repeats but may differ in a detail not shown here. Equal entries are not always repeated. Where two headings read alike, the source gives them in different places. Marks after values point to notes of the source that are not given here. Blank lines part the entries; values can stand above or below the compound they belong to.

Columns and labels:
[1] = pH 10
[2] = cited from earlier work
thiol peptide [3] = conditions: cited from earlier work
[4] = system: ARE-dependent gene activity in a recombinant cell line; conditions: cited from earlier work
thiol peptide [5] = assay: Cys-DPRA (Direct Peptide Reactivity Assay), literature data; conditions: for Cys-DPRA binary classification: FN: false negative; for Cys-DPRA binary classification: FP: false positive; for Cys-DPRA binary classification: TN: true negative; for Cys-DPRA binary classification: TP: true positive
[6] = NMR method: depletion of electrophile signal on reaction with DCYA
Source text: The described example can be applied to pure chemicals and mixtures. The method includes the acquisition of at least one NMR spectrum, mixing an electrophile and a nucleophile to acquire an array of control spectra and an addition of catalyst to record an array of reaction spectra. It also includes the quantification of at least one signal and the comparison of the signal with a control and the classification of the reaction based on the depletion of potential sensitizer based on the quantified residual signal.
2,5-Dimethylfuran was used as internal standard. When necessary, characterization of the product(s) formed during the reaction(s) was performed by homonuclear ^1H connectivities using 2D-COSY experiments. […] Two- and three bond ^1H-^13C connectivities were determined by gradient-HMBC experiments in which the evolution period for long-range ^1H-^13C coupling constants was optimized for a ^2,3JC,H of 8 Hz. Through-space ^1H connectivities were determined using a NOESY experiment with a mixing time of 0.450 s. […] Toronto, Canada].
In a 3 mm NMR tube, 1 volume of DCYA (100) mM in CDCl3) was mixed with one volume of sensitizer (100 mM in CDCl3) to give a final concentration of 50 mM for both DCYA and the sensitizer. Control ^1H NMR spectra (reference spectra) were recorded at regular intervals of for a minimum of 5 min. […] All spectra were recorded at constant temperature. All experiments were conducted using the manufacturer's standard presaturation pulse programs and experimental conditions were chosen as explained in NMR spectroscopy section. The progress of the reaction was followed by the diminished peak areas of the resonances for the signal of interest. The spectra were phased, referenced, and integrated using NMR data elaboration software. The structural characterizations of the resulting adducts were confirmed by conducting additional 2D-NMR experiments when necessary.
Covalent reaction of DCYA with carvone is dependent on the activation of the nucleophilic group (ex. sulfhydryl group to the reactive thio-anion) under basic conditions. This reaction is strongly dependent on the nature of the nucleophile and may be modulated by careful choice of the model nucleophile and the reaction conditions.
The control spectra are used as reference spectra (FIG. 3A). All the spectra were subjected to automatic phase and baseline correction using a Bernstein polynomial fit (order 3). After these two steps, all the spectra were integrated over the areas of interest. […] Both vinylic and adduct peak areas were normalized relative to the internal standard signal peaks. […] The concentrations of both electrophile and adduct were then plotted as percentage against time (in minutes). (FIG. 5).

[7] = cited from earlier work; remark: listed apart in the source
thiol peptide [8] = system: thiol peptide
[9] = Microplate spectrophotometric method (DCYA assay), fluorescence end-point; conditions: for DCYA 100-RI: RI = reactivity index, 2 equiv. electrophile, pH 10 buffer; for DCYA binary classification: FN: false negative; for DCYA binary classification: FP: false positive; for DCYA assay reactivity / classification in words: microplate spectrophotometric method; for DCYA binary classification: TN: true negative; for DCYA binary classification: TP: true positive, positive if 100-RI <95; for Fluorescence response, Reaction (R), average of 9 readings: DCYA + test article + pH 10 buffer + resin
[10] = Fluorescent response of DCYA in acetonitrile over time; format: physicochemical; conditions: micromolar solutions, after 3 h at room temperature
Description: The fluorescent responses of DCYA and DCYA disulfide in ACN were investigated at different concentrations using 1-300 μL/well in a 96 microplate reader at room temperature. Pure acetonitrile was used as a solvent control. The optimum excitation and emission wavelength combination was determined by performing excitation and emission scans. […] At these wavelengths, no solvent interference was observed. […] A linear response for DCYA was observed between 5-80 μM ([…]) concentrations with a R^2=0.995.

[11] = TLC monitoring of DCYA reactions with electrophiles; conditions: pH 10 buffer, 1-2.5 equiv. electrophile
Source text: For visualization purposes, the controls, blank and reactions were monitored by TLC on silica gel plates. A known volume of each sample was loaded on a silica gel plate and eluted with appropriate solvent system. The TLC plates were examined λ366 for the presence of the yellow fluorescence spots corresponding DCYA, its dimer or possible reaction products.
In order to minimize the competition between auto-dimerization [(DCYA)2] and nucleophilic addition, the reaction time and the electrophile:nucleophile stoichiometry were optimized. Massoia lactone at different concentrations was used to monitor the progress of the reaction by TLC (FIG. 11). […] In order to adequately discriminate between compounds with variable electrophilic strength, the assay was optimized using 2 equivalents of electrophile.

[12] = reported results from the literature
[13] = conversion of test chemical at 90 min, 1 equiv. DCYA, 0.1 equiv. DBN, CDCl3
[14] = based on depletion of electrophile signal at 30 min

SMILES: Cn1sccc1=O [2-Methyl-4-isothiazolin-3-one]
DCYA 100-RI ([1]; 2.1 mM): 16.4
DCYA binary classification: FN ([1]; 2.1 mM): 0
DCYA binary classification: FP ([1]; 2.1 mM): 0
DCYA binary classification: TN ([1]; 2.1 mM): 0
DCYA binary classification: TP ([1]; 2.1 mM): 1
LLNA EC3 ([2]; reported results (Table 7)): 1.9%
Cys-DPRA % Pept. remain. (thiol peptide [3]; [12]): 2.1%
KeratinoSens ™ EC3 ([4]; reported results (Table 7)): 29.56 µM
Cys-DPRA binary classification: FN (thiol peptide [5]): 0
Cys-DPRA binary classification: FP (thiol peptide [5]): 0
Cys-DPRA binary classification: TN (thiol peptide [5]): 0
Cys-DPRA binary classification: TP (thiol peptide [5]): 1

SMILES: OCCc1ccc(O)c(O)c1 [3-Hydroxytyrosol]
NMR Classification [6]: Non^$
NMR assay reactivity / classification in words [6]: almost unreactive
Conversion at t30 (depletion of electrophile signal) ([6]; at 30 min, 1 equiv. DCYA): 6%
NMR Method conversion [6, 13]: 6%
DCYA 100-RI ([1]; 2.1 mM): 97.2
LLNA (EC3) ([2]; mouse, in vivo): 0.6%
LLNA Classification ([2]; mouse, in vivo): Strong
LLNA EC3 ([2]; mouse, in vivo): 0.6%
Cys-DPRA reactivity in words (thiol peptide [3]): non-reactive

SMILES: C=C1C(=O)O[C@@H]2C[C@@]3(C)CCC[C@H](C)C3=C[C@H]12 [Alantolactone]
Conversion at t30 (depletion of electrophile signal) [6]: 99%
NMR Classification [6]: Strong
NMR Method conversion [6]: >99* %
DCYA 100-RI [1]: −6.7
Result in human patch tests ([7]; in vivo): Positive in human patch tests^6

SMILES: O=CC=Cc1ccccc1 [Cinnamaldehyde]
NMR Classification [6]: Moderate
NMR assay reactivity / classification in words [6]: moderate sensitizer
Conversion at t30 (depletion of electrophile signal) ([6]; at 30 min, 1 equiv. DCYA): 50%
NMR Method conversion [6, 13]: 50%
DCYA 100-RI ([1]; 2.1 mM): 85.1
DCYA binary classification: FN ([1]; 2.1 mM): 0
DCYA binary classification: FP ([1]; 2.1 mM): 0
DCYA binary classification: TN ([1]; 2.1 mM): 0
DCYA binary classification: TP ([1]; 2.1 mM): 1
Cys-DPRA binary classification: FN (thiol peptide [8]): 0
Cys-DPRA binary classification: FP (thiol peptide [8]): 0
Cys-DPRA binary classification: TN (thiol peptide [8]): 0
Cys-DPRA binary classification: TP (thiol peptide [8]): 1
LLNA (EC3) ([2]; mouse, in vivo): 3%
LLNA Classification ([2]; mouse, in vivo): Moderate
LLNA EC3 ([2]; mouse, in vivo): 3%
Cys-DPRA % Pept. remain. (thiol peptide [3]): 29.4%
Cys-DPRA, percentage of thiol peptide depleted (thiol peptide [3]): 70.6%
KeratinoSens ™ EC3 [4]: 63.94 µM

SMILES: CCCCC[C@@H]1CC=CC(=O)O1 [Massoia lactone]
NMR assay reactivity / classification in words [6]: moderate to strong skin sensitizer
Conversion at t30 (depletion of electrophile signal) ([6]; at 30 min, 1 equiv. DCYA, listed as Massoialactone): 59%
Conversion at t30 (depletion of electrophile signal) ([6]; at 30 min, 1 equiv. DCYA, listed as massoia lactone): 60%
NMR Classification [6, 14]: Moderate-strong
NMR Method conversion [6, 13]: 66%
TLC: adduct formation with DCYA [11]: only a partial reaction was achieved
Fluorescence response, Reaction (R), average of 9 readings ([9]; listed as ML): 6064.127 RFU and 6064 RFU
DCYA 100-RI [9]: 12.8

SMILES: O=C1C=CC(=O)C=C1 [p-Benzoquinone]
NMR assay reactivity / classification in words [6]: high reactivity
Depletion in less than five minutes ([6]; NMR, less than five minutes): > 95%
Conversion at t30 (depletion of electrophile signal) ([6]; at 30 min, 1 equiv. DCYA): 95%
NMR Classification [6, 14]: Strong
NMR Method conversion [6, 13]: 95^# %
LLNA (EC3) ([2]; effective concentration, published literature (Table 1)): 0.01%
LLNA Classification ([2]; published literature): Extreme
LLNA EC3 ([2]; reported results (Table 7)): 0.01%
Cys-DPRA, percentage of thiol peptide depleted (thiol peptide [3]; adopted from the literature): 99.0%
Cys-DPRA % Pept. remain. (thiol peptide [3]; [12]): 1%
KeratinoSens ™ EC3 ([4]; published literature (Table 1)): 32.77 µM
KeratinoSens ™ EC3 ([4]; reported results (Table 7)): 32.77 µM
Cys-DPRA binary classification: FN (thiol peptide [5]): 0
Cys-DPRA binary classification: FP (thiol peptide [5]): 0
Cys-DPRA binary classification: TN (thiol peptide [5]): 0
Cys-DPRA binary classification: TP (thiol peptide [5]): 1
DCYA 100-RI [9]: 34.5
DCYA binary classification: FN [9]: 0
DCYA binary classification: FP [9]: 0
DCYA assay reactivity / classification in words [9]: correctly identified as a sensitizer
DCYA binary classification: TN [9]: 0
DCYA binary classification: TP [9]: 1

Continued, in another order:

NMR Classification [6]: Strong
NMR Method conversion ([6]; 10 min, 50 mM): >97* %
Conversion at t30 (depletion of electrophile signal) ([6]; 30 min, 50 mM): 97%
DCYA 100-RI [9]: −8.5
DCYA binary classification: FN [9]: 0
DCYA binary classification: FP [9]: 0
DCYA assay reactivity / classification in words [9]: strongly reactive
DCYA binary classification: TN [9]: 0
DCYA binary classification: TP [9]: 1
SMILES: C=C1C(=O)O[C@@H]2/C=C(\C)CC/C=C(\C)CC[C@@H]12 [Costunolide]
Result in human patch tests ([7]; reported in literature): Positive in human patch tests^6
DCYA assay reactivity / classification in words ([9]; listed as costunolide): strong sensitizers

NMR assay reactivity / classification in words [6]: almost unreactive
Conversion at t30 (depletion of electrophile signal) ([6]; 30 min, 50 mM): 0%
NMR Method conversion ([6]; 90 min, 50 mM): 0%
NMR Classification [6, 14]: Non
Cys-DPRA binary classification: FN (thiol peptide [8]): 0
Cys-DPRA binary classification: FP (thiol peptide [5]): 0
Cys-DPRA binary classification: TN (thiol peptide [5]): 1
Cys-DPRA binary classification: TP (thiol peptide [5]): 0
Fluorescence response, Reaction (R), average of 9 readings [9]: 1996.775 RFU
DCYA 100-RI [9]: 97.2
DCYA binary classification: FN [9]: 0
DCYA binary classification: FP [9]: 0
DCYA binary classification: TN [9]: 1
DCYA binary classification: TP [9]: 0
SMILES: O=c1ccc2ccccc2o1 [Coumarin]

Loss of fluorescence response [10]: 1.5-3.0%
SMILES: CN(C)c1cccc2c(S(=O)(=O)NCCS)cccc12 [DCYA, 5-(dimethylamino)-N-(2-mercaptoethyl)naphthalene-1-sulfonamide]

DCYA 100-RI [1]: 91.1
Cys-DPRA binary classification: FN (thiol peptide [8]): 0
Cys-DPRA binary classification: FP (thiol peptide [8]): 0
Cys-DPRA binary classification: TN (thiol peptide [8]): 0
Cys-DPRA binary classification: TP (thiol peptide [8]): 1
SMILES: O=c1c(O)c(O)c1=O [Squaric acid]
LLNA EC3 ([2]; mouse, in vivo): 4.3%
Cys-DPRA % Pept. remain. (thiol peptide [3]): 53.1%
KeratinoSens ™ EC3 [4]: >2000 µM
